From PubChem BioAssay AID296 (DTP/NCI, 2004)
Several values for one entry are separate records, joined by “and”; a condition that tells them apart may be missing. Equal values may be shown once. Results filed as inconclusive are left out. *1 amine or outer side, *2 acyl side, *3 side chain or, on linkers, in order; H or OH if unused. Where a SMILES comes first, the peptide text is derived from it. Bridges are numbered along the chain shown (N, C = ends). Roman numbers before positions name the chains, in order. [ ]: non-standard residue; d: D form. Actinocin(1to9) = Cc1c2oc3c(C)ccc(C(=O)[*:2])c3nc-2c(C(=O)[*:1])c(N)c1=O; NMeV = CN[CH](C(=O)O)C(C)C; Aze = O=C(O)[CH]1CCN1; Sar = CNCC(=O)O

Tested on: MX-1 breast xenograft, nude mice, tumor weight T/C
Test: NCI In Vivo Anticancer Drug Screen. Data for tumor model Human Mammary Carcinoma MX-1 Xenograft (intrarenal inoculation) in NU/NU Swiss (nude) mice
Conditions: endpoint: mean tumor weight change, higher = larger tumour
How it was run: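 Mice carrying the implanted tumor receive either test agent or vehicle. Tumor size or survival is then recorded for both groups. Results are stated as the treated-to-control quotient.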

[1] = dose: 300.0 mg/kg/injection, schedule: Q04DX003 (sc), vehicle: saline with Tween-80
[2] = dose: 600.0 mg/kg/injection, schedule: Q04DX003 (sc), vehicle: saline with Tween-80
[3] = dose: 1200.0 mg/kg/injection, schedule: Q04DX003 (sc), vehicle: saline with Tween-80
[4] = dose: 50.0 mg/kg/injection, schedule: Q01DX010 (sc), vehicle: saline
[5] = dose: 100.0 mg/kg/injection, schedule: Q01DX010 (sc), vehicle: saline
[6] = dose: 100.0 mg/kg/injection, schedule: Q01DX010 (sc), vehicle: saline with Tween-80
[7] = dose: 800.0 mg/kg/injection, schedule: Q01DX010 (sc), vehicle: saline with Tween-80
[8] = dose: 1.0 mg/kg/injection, schedule: Q04DX003 (sc), vehicle: saline
[9] = dose: 150.0 mg/kg/injection, schedule: Q04DX003 (ip), vehicle: saline
[10] = dose: 12.5 mg/kg/injection, schedule: Q01DX010 (sc), vehicle: Klucel (hydroxypropylcellulose) (HPC)
[11] = dose: 50.0 mg/kg/injection, schedule: Q01DX010 (sc), vehicle: Klucel (hydroxypropylcellulose) (HPC)
[12] = dose: 150.0 mg/kg/injection, schedule: Q04DX003 (sc), vehicle: saline with Tween-80

CC(=O)Nc1ccc(O)c(O)c1
T/C [1]: 75 % of control
T/C [2]: 52 % of control
T/C [3]: 47 % of control

NC(C/[N+]([O-])=N/O)C(=O)O (centres undefined)
T/C [4]: 98 % of control
T/C [5]: 62 % of control

O=Cc1ccc(C(Cl)(Cl)Cl)cc1
T/C [6]: 182 % of control
T/C (dose: 400.0 mg/kg/injection, schedule: Q01DX010 (sc), vehicle: saline with Tween-80): 120 % of control
T/C [7]: 46 % of control

C/C=C1\C[C@@H]2C(OC)Nc3cc(O)c(OC)cc3C(=O)N2C1 (some centres undefined)
T/C [8]: 78 % of control
T/C (dose: 2.0 mg/kg/injection, schedule: Q04DX003 (sc), vehicle: suspension in saline): 23 % of control and 31 % of control
T/C (dose: 4.0 mg/kg/injection, schedule: Q04DX003 (sc), vehicle: saline): 7 % of control and 26 % of control
T/C (dose: 4.0 mg/kg/injection, schedule: Q04DX003 (sc), vehicle: suspension in saline): 1 % of control and 3 % of control
T/C (dose: 8.0 mg/kg/injection, schedule: Q04DX003 (sc), vehicle: suspension in saline): -71 % of control

Nc1ncc(C2OC(CO)C(O)C2O)c(=O)[nH]1 (centres undefined)
T/C [9]: 53 % of control
T/C (dose: 300.0 mg/kg/injection, schedule: Q04DX003 (ip), vehicle: saline): 35 % of control
T/C (dose: 600.0 mg/kg/injection, schedule: Q04DX003 (ip), vehicle: saline): 25 % of control

CCC(C)Nc1ccc(N)cc1 (centres undefined)
T/C (dose: 4.5 mg/kg/injection, schedule: Q04DX003 (sc), vehicle: Klucel (hydroxypropylcellulose) (HPC)): 50 % of control
T/C (dose: 18.0 mg/kg/injection, schedule: Q04DX003 (sc), vehicle: Klucel (hydroxypropylcellulose) (HPC)): 76 % of control

C[CH2][Pb]([CH2]C)([CH2]C)[O]C(=O)COc1ccccc1
T/C (dose: 4.5 mg/kg/injection, schedule: Q04DX003 (sc), vehicle: saline with Tween-80): 66 % of control
T/C (dose: 9.0 mg/kg/injection, schedule: Q04DX003 (sc), vehicle: saline with Tween-80): 112 % of control
T/C (dose: 18.0 mg/kg/injection, schedule: Q04DX003 (sc), vehicle: saline with Tween-80): 79 % of control

O=S(=O)(O)c1cc(N=C=S)ccc1/C=C/c1ccc(N=C=S)cc1S(=O)(=O)O
T/C [9]: 47 % of control

CN(Cc1cnc2nc(N)nc(N)c2n1)c1c(Cl)cc(C(=O)NC(CCC(=O)O)C(=O)O)cc1Cl (centres undefined)
T/C [10]: 86 % of control
T/C (dose: 25.0 mg/kg/injection, schedule: Q01DX010 (sc), vehicle: Klucel (hydroxypropylcellulose) (HPC)): 44 % of control
T/C [11]: -25 % of control

Nc1ccc(C(OC(=O)c2cc3ccccc3c(Cc3c(O)c(C(=O)OC(c4ccc(N)cc4)(c4ccc(N)cc4)c4ccc(N)cc4)cc4ccccc34)c2O)(c2ccc(N)cc2)c2ccc(N)cc2)cc1
T/C (dose: 72.0 mg/kg/injection, schedule: Q04DX003 (sc), vehicle: saline with Tween-80): 97 % of control
T/C (dose: 144.0 mg/kg/injection, schedule: Q04DX003 (sc), vehicle: saline with Tween-80): 104 % of control
T/C (dose: 288.0 mg/kg/injection, schedule: Q04DX003 (sc), vehicle: saline with Tween-80): 87 % of control

CC1(C)OC2C(COC(=O)c3ccc([N+](=O)[O-])cc3)OC(NC(=O)N(CCCl)N=O)C2O1 (centres undefined)
T/C [12]: 69 % of control
T/C [3]: 9 % of control

O=C(O)C1CC1.[Ag]
T/C (dose: 75.0 mg/kg/injection, schedule: Q04DX003 (sc), vehicle: saline with Tween-80): 120 % of control
T/C [12]: 80 % of control
T/C [1]: 98 % of control

CCN(CC)CCOC(=O)Cc1cccc2c(=O)cc(-c3ccccc3)oc12
T/C (dose: 100.0 mg/kg/injection, schedule: Q04DX003 (sc), vehicle: saline with Tween-80): 107 % of control
T/C (dose: 200.0 mg/kg/injection, schedule: Q04DX003 (sc), vehicle: saline with Tween-80): 102 % of control

Cc1nc(N)nc(N)c1-c1ccc(Cl)c(Cl)c1
T/C (dose: 0.47 mg/kg/injection, schedule: Q04DX003 (sc), vehicle: saline): 100 % of control
T/C (dose: 0.94 mg/kg/injection, schedule: Q04DX003 (sc), vehicle: saline): 80 % of control
T/C (dose: 3.0 mg/kg/injection, schedule: Q04DX003 (sc), vehicle: saline): 84 % of control
T/C (dose: 3.75 mg/kg/injection, schedule: Q04DX003 (sc), vehicle: saline): 102 % of control
T/C (dose: 6.0 mg/kg/injection, schedule: Q04DX003 (sc), vehicle: saline): 107 % of control
T/C (dose: 12.0 mg/kg/injection, schedule: Q04DX003 (sc), vehicle: saline): 87 % of control

COc1cc2c3c(cccc3c1)C(=O)N(CCN(C)C)C2=O
T/C [1]: 100 % of control
T/C [2]: 103 % of control

CCO/C=C1\SC(=S)N(c2ccccc2C)C1=O
T/C [6]: 121 % of control
T/C (dose: 200.0 mg/kg/injection, schedule: Q01DX010 (sc), vehicle: saline with Tween-80): 90 % of control
T/C [7]: 111 % of control

Cc1ccccc1N(CC1CO1)CC1CO1 (centres undefined)
T/C [4]: 54 % of control
T/C [5]: 91 % of control
T/C (dose: 200.0 mg/kg/injection, schedule: Q01DX010 (sc), vehicle: saline): 89 % of control
T/C (dose: 400.0 mg/kg/injection, schedule: Q01DX010 (sc), vehicle: saline): 56 % of control
T/C (dose: 800.0 mg/kg/injection, schedule: Q01DX010 (sc), vehicle: suspension in saline): 111 % of control

C=C(C)[C@H]1CN[C@H](C(=O)O)[C@H]1CC(=O)O
T/C (dose: 20.0 mg/kg/injection, schedule: Q04DX003 (sc), vehicle: suspension in saline): 75 % of control
T/C (dose: 40.0 mg/kg/injection, schedule: Q04DX003 (sc), vehicle: suspension in saline): 36 % of control

CCCCCCCC(=O)N/N=C(\CO)[C@]1(O)Cc2c(O)c3c(c(O)c2[C@@H](OC2CC(N)C(O)C(C)O2)C1)C(=O)c1c(OC)cccc1C3=O (some centres undefined)
T/C (dose: 25.0 mg/kg/injection, schedule: Q01DX010 (sc), vehicle: water): 227 % of control
T/C (dose: 50.0 mg/kg/injection, schedule: Q01DX010 (sc), vehicle: water): 230 % of control
T/C (dose: 100.0 mg/kg/injection, schedule: Q01DX010 (sc), vehicle: water): 370 % of control

O=C1NC(O)CCN1C1OC(CO)C(O)C1O (centres undefined)
T/C (dose: 200.0 mg/kg/injection, schedule: Q01DX010 (sc), vehicle: water): 111 % of control
T/C (dose: 400.0 mg/kg/injection, schedule: Q01DX010 (sc), vehicle: water): 112 % of control
T/C (dose: 800.0 mg/kg/injection, schedule: Q01DX010 (sc), vehicle: water): 79 % of control
T/C (dose: 1600.0 mg/kg/injection, schedule: Q01DX010 (sc), vehicle: water): 103 % of control

CC1OC1C(=O)C1(O)C(C)C(O)C23OC2(C(O)c2c(O)cccc2C3=O)C1O (centres undefined)
T/C (dose: 12.0 mg/kg/injection, schedule: Q04DX003 (sc), vehicle: Klucel (hydroxypropylcellulose) (HPC)): 102 % of control
T/C (dose: 24.0 mg/kg/injection, schedule: Q04DX003 (sc), vehicle: Klucel (hydroxypropylcellulose) (HPC)): 83 % of control
T/C (dose: 48.0 mg/kg/injection, schedule: Q04DX003 (sc), vehicle: Klucel (hydroxypropylcellulose) (HPC)): 83 % of control

CCCCCC[C@H]([C@H](C)O)n1cnc2c(N)ncnc21
T/C [11]: 43 % of control
T/C (dose: 100.0 mg/kg/injection, schedule: Q01DX010 (sc), vehicle: Klucel (hydroxypropylcellulose) (HPC)): 116 % of control
T/C (dose: 200.0 mg/kg/injection, schedule: Q01DX010 (sc), vehicle: Klucel (hydroxypropylcellulose) (HPC)): 94 % of control

Cc1c2oc3c(C)ccc(C(=O)NC4C(=O)NC(C(C)C)C(=O)N5CCCC5C(=O)N(C)CC(=O)N(C)C(C(C)C)C(=O)OC4C)c3nc-2c(C(=O)NC2C(=O)NC(C(C)C)C(=O)N3CCC3C(=O)N(C)CC(=O)N(C)C(C(C)C)C(=O)OC2C)c(N)c1=O (centres undefined) (I: TV[Aze][Sar][NMeV] / II: TVP[Sar][NMeV]; ester I:1-I:C, II:1-II:C; linker I:N-II:N via Actinocin(1to9); configuration not given here)
T/C (dose: 0.25 mg/kg/injection, schedule: Q04DX003 (sc), vehicle: saline + alcohol): 53 % of control
T/C (dose: 0.5 mg/kg/injection, schedule: Q04DX003 (sc), vehicle: saline + alcohol): 12 % of control
T/C (dose: 0.5 mg/kg/injection, schedule: Q04DX003 (sc), vehicle: saline): 112 % of control
T/C (dose: 1.0 mg/kg/injection, schedule: Q04DX003 (sc), vehicle: saline + alcohol): -80 % of control
T/C [8]: 47 % of control
T/C (dose: 2.0 mg/kg/injection, schedule: Q04DX003 (sc), vehicle: saline): 40 % of control

S=c1nc[nH]c2nc[nH]c12
T/C (dose: 5.25 mg/kg/injection, schedule: Q01DX010 (sc), vehicle: Klucel (hydroxypropylcellulose) (HPC)): 118 % of control
T/C [10]: 72 % of control and 79 % of control
